Measurements published in patent publication US20150153326A1, “QUANTITATIVE ANALYSIS OF CONTACT-DEPENDENT CELL-TO-CELL TRANSFER AND DISEASE TRANSMISSION” (Bergen Teknologioverforing AS, BTO, priority 2013, published 2015).

Tested on: HeLa-Kyoto cells
Test: contact-dependent cell-to-cell DiD organelle transfer, DiD-stained/unstained 1:400 co-culture, 3D confocal quantification
Type: cell-based
Settings: 100 nM, added 2 hours after plating, cells fixed after 18 hours, 1:400 cell ratio
Procedure: HeLa-Kyoto cells were cultured in DMEM:F12 supplemented with 10% fetal calf serum and 1% penicillin/streptomycin (Invitrogen Detection Technologies, Carlsbad, Calif., USA) on 24-well microscopy plates (Greiner Bio-One GmbH). Cells were maintained under humidified air supplemented with 5% CO2 at 37° C. and plated with a density of approximately 35 000 cells/cm^2. After 24 hours, 200 ng (5 μl)/ml lipid analog Vybrant® DiD Cell-Labelling solution (Invitrogen Detection Technologies, Carlsbad, Calif., USA) was added to the plated cells in culture medium, incubated at 37° C. for 20 min wherein tilted 5 times. After the incubation period, the culture medium was exchanged 4 times within 2 hours. […]
Cells were imaged with a Leica confocal SP5 in resonant scanner mode (zoom 1.7; pinhole airyl; 40× 1.25NA oil immersion objective; 512×512 pixel; z-distance 1.01 μm, line-average 16; offset −1; gain 900-1000V. For the DiD-channel laser power was adjusted for each experiment to a strength resulting in approximately half a cell diameter of out-of-detection range data for average donor cells in order to quantify the transferred DiD in the surrounding cells, present in much lower quantities. For all other channels, the laser power was adjusted to few out-of-detection range pixels at the upper end of the scale. […]

C=C1[C@@H](C)[C@H]2[C@H](Cc3ccccc3)NC(=O)[C@]23[C@H](OC(C)=O)/C=C/[C@@](C)(O)C(=O)[C@@H](C)C/C=C/[C@H]3[C@@H]1O [Cytochalasin D]
contact-dependent cell-to-cell DiD transfer (integrated intensity of DiD signal inside acceptor cells) compared to control: substantially inhibited
